Key:
[1] = system: H23 (KRAS G12C); test: Tumor cell proliferation inhibition assay (CellTiter-Glo), H23; assay type: cell-based, Human; details: 10% fetal bovine serum
Protocol: The H358, H23 or MIA-Paca2 cells were digested, centrifuged and resuspended, and the cell density was measured with a Scepter automatic cell counter. Cells were diluted to a solution containing 44,000 cells per milliliter, then added to a 96-well culture plate at 90 μL per well. The 96-well plate was placed in a 5% CO2 incubator at 37° C., and after the cells were cultured for 24 hours, different concentrations of the compounds to be tested were added. Cells were incubated with compounds in the presence of 10% fetal bovine serum for 72 hours. The inhibition of cell growth was assessed by measuring ATP levels by using the CellTiter-Glo Luminescent Cell Viability Assay Kit (details in manufacturer's instructions). In brief, 30 μL of CellTiter-Glo reagent was added to each well and the plate was shaken for 10 minutes to induce cell lysis, then the fluorescent signal was detected and recorded with a Fluoroskan Ascent FL (Thermo). Maximum signal values were obtained from cells treated with DMSO for 72 hours. Minimum signal values were obtained with medium only (zero cell number). Inhibition rate %=(maximum signal value-compound signal value)/(maximum signal value-minimum signal value)×100%. Data were processed by using Graphpad prism5 software. IC50 values were calculated using a sigmoidal dose-response curve.

[2] = Pharmacokinetic (PK) experiment in rats by gavage; assay type: in vivo; details: rat, plasma, po, male SD rats, 20 mg/kg; for AUC(0-t): read-out: AUC0-24
[3] = molecular target: T1, KRAS-G12C/SOS1 (Homo sapiens, UniProt P01116, G12C); test: HTRF KRAS-G12C/SOS1 binding assay; details: 2 hours room temperature
T1 construct: purchased Cisbio #63ADK000CB16PEG
Protocol: 2) Diluted the compound to be tested with diluent into 10× stock solution, starting from a concentration of 10000 nM, diluting in 4-fold gradient and a total of 6 concentration gradients.
After incubated at room temperature for 15 minutes, added pre-mixed 5 uL of anti-Tag1-Tb^3+ and 5 uL of anti-Tag2-XL665. Sealed the plate and incubated at room temperature for 2 hours.
Data were processed by using Graphpad prism software.

[4] = system: H358 (KRAS G12C); test: Tumor cell proliferation inhibition assay (CellTiter-Glo), H358; assay type: cell-based, Human; details: 10% fetal bovine serum
Procedure, shortened: (§1)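 Growth was read as ATP by CellTiter-Glo luminescence, with inhibition normalised to DMSO (max) and medium-only (min) wells. IC50 came from sigmoidal dose-response fits.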

[5] = system: MIA-Paca2 (KRAS G12C); test: Tumor cell proliferation inhibition assay (CellTiter-Glo), MIA-Paca2; assay type: cell-based, Human; details: 10% fetal bovine serum
Procedure, shortened: as §1

[6] = Caco-2 cell transmembrane transport experiment; details: human; for efflux ratio at 90 min, 10 μM: Caco-2, pH 7.4; for Papp B→A at 90 min, 10 μM: basolateral to apical
Source text: In this experiment, a monolayer of Caco-2 cells was used to assess drug penetration. […] The apparent permeability coefficient from apical to basolateral (Papp A-B) and the basolateral to apical permeability coefficient (Papp B-A) of compounds represent the ability of the compound to be transported in both directions, respectively.
Apparent permeability coefficient (Papp)=(the volume of the receiver chamber/the filter surface area×culture time))×(the drug concentration of receiver chamber at the end of culture/(the drug concentration of donor chamber at the initial culture×dilution factor)
In this experiment, Millipore cell culture plates (PSHT 010 R5): membrane area=0.7 cm^2, recipient side volume=0.8 mL (A-to-B) or 0.4 mL (B-to-A), incubation time=90 minutes.

[7] = Caco-2, pH 7.4, Papp A-B Sample_01, 10 μM, pH 7.4, 37° C., 90 min, apical to basolateral
[8] = Caco-2, pH 7.4, Papp A-B Sample_02, 10 μM, pH 7.4, 37° C., 90 min, apical to basolateral
[9] = Caco-2, pH 7.4, Papp A-B mean value, 10 μM, pH 7.4, 37° C., 90 min, apical to basolateral
[10] = Caco-2, pH 7.4, Papp B-A Sample_01, 10 μM, pH 7.4, 37° C., 90 min
[11] = Caco-2, pH 7.4, Papp B-A Sample_02, 10 μM, pH 7.4, 37° C., 90 min
[12] = Caco-2, pH 7.4, Papp B-A mean value, 10 μM, pH 7.4, 37° C., 90 min
[13] = Caco-2, pH 7.4, apparent permeability coefficient Papp A-B, Caco-2

T1 sequence (P01116 1-188 isoform P01116-2 G12C): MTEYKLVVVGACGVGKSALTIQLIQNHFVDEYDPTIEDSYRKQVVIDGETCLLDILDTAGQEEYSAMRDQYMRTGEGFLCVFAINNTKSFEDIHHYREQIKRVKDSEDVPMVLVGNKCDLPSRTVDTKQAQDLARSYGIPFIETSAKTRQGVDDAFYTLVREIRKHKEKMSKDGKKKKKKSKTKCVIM

Structure (SMILES) | IC50 ([1]; Homo sapiens, 72 h) | AUC(0-inf) [2] | Cmax [2] | Tmax [2] | half-life [2] | AUC(0-t) [2] | melting point | IC50 [3] | IC50 ([4]; 72 hours) | IC50 ([5]; 72 hours) | IC50 ([4]; Homo sapiens, NCI-H358, 72 h) | IC50 ([5]; Homo sapiens, MIA PaCa-2, 72 h) | further results
C=CC(=O)N1C[C@H](C)N(c2nc(=O)n(-c3c(C)ccnc3C(C)C)c3nc(-c4c(F)ccc5ccoc45)c(Cl)cc23)C[C@H]1C [Compound 90, 4-((2S,5R)-4-acryloyl-2,5-dimethylpiperazin-1-yl)-6-chloro-7-(6-fluorobenzofuran-7-yl)-1-(2-isopropyl-4-methylpyridin-3-yl)pyrido[2,3-d]pyrimidin-2(1H)-one] | < 10 nM | 20400 ng·h/mL | 5610 ng/mL | 1 h | 5.54 h | 20100 ng·h/mL | 167 to 169 °C | 50 to 100 nM | < 10 nM | 10 to 50 nM |  |  | 
C=CC(=O)N1C[C@H](C)N(c2nc(=O)n(-c3c(C)ccnc3C(C)C)c3nc(-c4c(F)c(F)cc5ccoc45)c(Cl)cc23)C[C@H]1C (single isomer, unassigned) [Compound 104-1] | < 10 nM | 10500 ng·h/mL | 2590 ng/mL | 1 h | 4.35 h | 10300 ng·h/mL |  | < 50 nM |  |  | < 10 nM | 10 to 50 nM | efflux ratio at 90 min, 10 μM [6]: 1.92; Papp A→B at 90 min, 10 μM [6, 7]: 11.2 ×10⁻⁶ cm/s; Papp A→B at 90 min, 10 μM [6, 8]: 10.4 ×10⁻⁶ cm/s; Papp A→B at 90 min, 10 μM [6, 9]: 10.8 ×10⁻⁶ cm/s; Papp B→A at 90 min, 10 μM [6, 10]: 22.1 ×10⁻⁶ cm/s; Papp B→A at 90 min, 10 μM [6, 11]: 19.5 ×10⁻⁶ cm/s; Papp B→A at 90 min, 10 μM [6, 12]: 20.8 ×10⁻⁶ cm/s; Papp A→B at 90 min, 10 μM [6, 13]: > 10 ×10⁻⁶ cm/s
C=CC(=O)N1CCN(c2nc(=O)n(-c3c(C)ccnc3C(C)C)c3nc(-c4c(F)c(F)cc5ccoc45)c(Cl)cc23)[C@@H](C)C1 (single isomer, unassigned) [Compound 103-1] | < 10 nM | 6240 ng·h/mL | 2700 ng/mL | 1 h | 6.03 h | 6190 ng·h/mL |  | < 50 nM |  |  | < 10 nM | < 10 nM | efflux ratio at 90 min, 10 μM [6]: 2.08; Papp A→B at 90 min, 10 μM [6, 7]: 12.1 ×10⁻⁶ cm/s; Papp A→B at 90 min, 10 μM [6, 8]: 10.7 ×10⁻⁶ cm/s; Papp A→B at 90 min, 10 μM [6, 9]: 11.4 ×10⁻⁶ cm/s; Papp B→A at 90 min, 10 μM [6, 10]: 19.7 ×10⁻⁶ cm/s; Papp B→A at 90 min, 10 μM [6, 11]: 27.8 ×10⁻⁶ cm/s; Papp B→A at 90 min, 10 μM [6, 12]: 23.7 ×10⁻⁶ cm/s; Papp A→B at 90 min, 10 μM [6, 13]: > 10 ×10⁻⁶ cm/s
C=CC(=O)N1CCN(c2nc(=O)n(-c3c(C)ccnc3C(C)C)c3nc(-c4c(F)ccc5ccoc45)c(F)cc23)[C@@H](C)C1 (single isomer, unassigned) [Compound 70-1] |  | 7910 ng·h/mL | 3530 ng/mL | 1 h | 2.77 h | 7890 ng·h/mL |  | 50 to 100 nM | 10 to 50 nM | 10 to 50 nM |  |  | IC50 ([1]; 72 hours): < 10 nM; efflux ratio at 90 min, 10 μM [6]: 1.19; Papp A→B at 90 min, 10 μM [6, 7]: 19 ×10⁻⁶ cm/s; Papp A→B at 90 min, 10 μM [6, 8]: 18.8 ×10⁻⁶ cm/s; Papp A→B at 90 min, 10 μM [6, 9]: 18.9 ×10⁻⁶ cm/s; Papp B→A at 90 min, 10 μM [6, 10]: 21.1 ×10⁻⁶ cm/s; Papp B→A at 90 min, 10 μM [6, 11]: 23.7 ×10⁻⁶ cm/s; Papp B→A at 90 min, 10 μM [6, 12]: 22.4 ×10⁻⁶ cm/s; Papp A→B at 90 min, 10 μM [6, 13]: > 10 ×10⁻⁶ cm/s
C=CC(=O)N1CCN(c2nc(=O)n(-c3c(C(C)C)ccnc3C(C)C)c3nc(-c4c(F)ccc5ccoc45)c(Cl)cc23)[C@@H](C)C1 [Compound 122, 4-((S)-4-acryloyl-2-methylpiperazin-1-yl)-6-chloro-1-(2,4-diisopropylpyridin-3-yl)-7-(6-fluorobenzofuran-7-yl)pyrido[2,3-d]pyrimidin-2(1H)-one] |  | 6000 ng·h/mL | 1630 ng/mL | 1.67 h | 3.64 h | 5990 ng·h/mL | 162 to 173 °C | < 50 nM |  |  | < 10 nM | < 10 nM | 
C=CC(=O)N1CCN(c2nc(=O)n(-c3c(C)ccnc3C(C)C)c3nc(-c4c(F)ccc5ccoc45)c(F)cc23)[C@@H](C)C1 (single isomer, unassigned) [Compound 70-2] |  |  |  |  |  |  |  | > 1000 nM | 100 to 500 nM | > 500 nM |  |  | IC50 ([1]; 72 hours): 50 to 100 nM
C=CC(=O)N1CCN(c2nc(=O)n(-c3c(C)ccnc3C(C)C)c3nc(-c4c(F)ccc5ccoc45)c(Cl)cc23)[C@@H](C)C1 [Compound 73, 4-((S)-4-acryloyl-2-methylpiperazin-1-yl)-6-chloro-7-(6-fluorobenzofuran-7-yl)-1-(2-isopropyl-4-methylpyridin-3-yl)pyrido[2,3-d]pyrimidin-2(1H)-one] | < 10 nM | 8640 ng·h/mL | 3360 ng/mL | 1 h | 3.97 h | 8630 ng·h/mL |  | < 50 nM |  |  | < 10 nM | < 10 nM | 
C=CC(=O)N1CCN(c2nc(=O)n(-c3c(C)ccnc3C(C)C)c3nc(-c4c(F)ccc5ccoc45)c(Cl)cc23)[C@@H](C)C1 (single isomer, unassigned) [Compound 73-2] |  |  |  |  |  |  |  | 100 to 500 nM | 10 to 50 nM | 100 to 500 nM |  |  | IC50 ([1]; 72 hours): < 10 nM
C=CC(=O)N1C[C@H](C)N(c2nc(=O)n(-c3c(C)ccnc3C(C)C)c3nc(-c4c(F)c(F)cc5ccoc45)c(F)cc23)C[C@H]1C (single isomer, unassigned) [Compound 91-1] | < 10 nM | 9710 ng·h/mL | 2970 ng/mL | 1.17 h | 2.72 h | 9680 ng·h/mL | 156 to 158 °C | 100 to 500 nM |  |  | 10 to 50 nM | 10 to 50 nM | 
C=CC(=O)N1C[C@H](C)N(c2nc(=O)n(-c3c(C)ccnc3C(C)C)c3nc(-c4c(F)ccc5ccoc45)c(F)cc23)C[C@H]1C (single isomer, unassigned) [Compound 89-1] |  | 9020 ng·h/mL | 3200 ng/mL | 1 h | 3.1 h | 9010 ng·h/mL | 275 to 277 °C | 50 to 100 nM |  |  | 10 to 50 nM | 10 to 50 nM | 
C=CC(=O)N1CCN(c2nc(=O)n(-c3c(C)ccnc3C(C)C)c3nc(-c4c(F)c(F)cc5ccoc45)c(F)cc23)[C@@H](C)C1 (single isomer, unassigned) [Compound 74-1] | < 10 nM | 6220 ng·h/mL | 3180 ng/mL | 0.83 h | 5.3 h | 6200 ng·h/mL |  | 50 to 100 nM |  |  | 10 to 50 nM | 10 to 50 nM | 

From patent US20220389013A1, “PYRIDOPYRIMIDINONE COMPOUNDS AND APPLICATIONS THEREOF” (BeBetter Med Inc., priority 2020, published 2022)
